# Test results published in patent US12655116B2, “Substituted isophthalic acid diamides” (Bayer Aktiengesellschaft, priority 2020, dated 2026).
# Experiments:
# VIOTR [1] = experiment: Pre-emergence herbicidal action against VIOTR; type: in vivo, Viola tricolor
# Procedure, shortened: (§1)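 Herbicidal effect was assessed 3 weeks after treatment by visual comparison with untreated controls, 100% denoting dead plants. Aqueous WP or EC preparations had been applied at 600 to 800 l/ha with 0.2% wetting agent to the soil covering freshly sown seeds.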
# SETVI [2] = experiment: Pre-emergence herbicidal action against SETVI; type: in vivo, Setaria viridis
# Procedure, shortened: as §1
# POLCO = experiment: Pre-emergence herbicidal action against POLCO; type: in vivo, Polygonum convolvulus; details: Fallopia convolvulus, 504 h, dosage 80 g/ha
# Procedure, shortened: as §1
# HORMU = experiment: Post-emergence herbicidal action against HORMU; type: in vivo, Hordeum murinum; details: dosage 20 g/ha
# Experimental: Seeds of monocotyledonous and dicotyledonous weed and crop plants are laid out in sandy loam soil in wood-fiber pots, covered with soil and cultivated in a greenhouse under good growth conditions. 2 to 3 weeks after sowing, the test plants are treated at the one-leaf stage. The compounds of the invention, formulated in the form of wettable powders (WP) or as emulsion concentrates (EC), are then sprayed onto the green parts of the plants in the form of an aqueous suspension or emulsion at a water application rate equivalent to 600 to 800 l/ha, with addition of 0.2% wetting agent. After the test plants have been left to stand in the greenhouse under optimal growth conditions for about 3 weeks, the action of the preparations is assessed visually in comparison to untreated controls (herbicidal action in percent (%): 100% activity=the plants have died, 0% activity=like control plants). […] The tables below illustrate, in an illustrative manner, the post-emergence herbicidal action of the compounds of the invention, the herbicidal activity being stated in percent.
# ECHCG [3] = experiment: Post-emergence herbicidal action against ECHCG; type: in vivo, Echinochloa crus-galli
# Procedure, shortened: (§2)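 Post-emergence greenhouse test; one-leaf stage, 2–3 wk post-sowing, sandy loam. Foliar spray of WP/EC in water, 600–800 l/ha, +0.2% wetting agent. Visual % action at ~3 wk vs untreated (100% = plants dead).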
# PHBPU [4] = experiment: Post-emergence herbicidal action against PHBPU; type: in vivo, Pharbitis purpurea
# Procedure, shortened: as §2
# DIGSA [5] = experiment: Pre-emergence herbicidal action against DIGSA; type: in vivo, Digitaria sanguinalis
# Procedure, shortened: as §1
# DIGSA [6] = experiment: Post-emergence herbicidal action against DIGSA; type: in vivo, Digitaria sanguinalis
# Procedure, shortened: as §2
# AMARE [7] = experiment: Post-emergence herbicidal action against AMARE; type: in vivo, Amaranthus retroflexus; details: 20 g/ha, visual assessment about 3 weeks after treatment, 100% = plants have died, 0% = like control plants
# Procedure, shortened: as §2
# ABUTH [8] = experiment: Post-emergence herbicidal action against ABUTH; type: in vivo, Abutilon theophrasti; details: visual assessment about 3 weeks after treatment vs untreated controls
# Procedure, shortened: as §2
# AMARE [9] = experiment: Pre-emergence herbicidal action against AMARE; type: in vivo, Amaranthus retroflexus
# Procedure, shortened: as §1
# MATIN [10] = experiment: Post-emergence herbicidal action against MATIN; type: in vivo, Matricaria inodora; details: Tripleurospermum inodorum, 504 h, dosage 20 g/ha
# Procedure, shortened: as §2
# AVEFA = experiment: Pre-emergence herbicidal action against AVEFA; type: in vivo, Avena fatua; details: 80 g/ha, pre-emergence
# Procedure, shortened: as §1
# ALOMY [11] = experiment: Pre-emergence herbicidal action against ALOMY; type: in vivo, Alopecurus myosuroides; details: Alopecurus myosuroides, 504 h; 80 g/ha, pre-emergence, scored visually after 3 weeks vs untreated controls (100% = plants have died, 0% = like control plants)
# Procedure, shortened: as §1
# VERPE [12] = experiment: Pre-emergence herbicidal action against VERPE; type: in vivo, Veronica persica; details: Veronica persica, 504 h
# Procedure, shortened: as §1
# MATIN [13] = experiment: Pre-emergence herbicidal action against MATIN; type: in vivo, Matricaria inodora
# Procedure, shortened: as §1
# ABUTH [14] = experiment: Pre-emergence herbicidal action against ABUTH; type: in vivo, Abutilon theophrasti
# Procedure, shortened: as §1
# LOLRI = experiment: Pre-emergence herbicidal action against LOLRI; type: in vivo, Lolium rigidum; details: Lolium rigidum, 504 h, 80 g/ha
# Procedure, shortened: as §1
# STEME [15] = experiment: Pre-emergence herbicidal action against STEME; type: in vivo, Stellaria media
# Procedure, shortened: as §1
# VERPE [16] = experiment: Post-emergence herbicidal action against VERPE; type: in vivo, Veronica persica; details: 20 g/ha
# Procedure, shortened: as §2
# STEME [17] = experiment: Post-emergence herbicidal action against STEME; type: in vivo, Stellaria media
# Procedure, shortened: as §2
# SETVI [18] = experiment: Post-emergence herbicidal action against SETVI; type: in vivo, Setaria viridis; details: dosage 20 g/ha
# Procedure, shortened: as §2
# PHBPU [19] = experiment: Pre-emergence herbicidal action against PHBPU; type: in vivo, Pharbitis purpurea; details: dosage 80 g/ha
# Procedure, shortened: as §1
# ECHCG [20] = experiment: Pre-emergence herbicidal action against ECHCG; type: in vivo, Echinochloa crus-galli
# Procedure, shortened: as §1
# VIOTR [21] = experiment: Post-emergence herbicidal action against VIOTR; type: in vivo, Viola tricolor
# Procedure, shortened: as §2
# ALOMY [22] = experiment: Post-emergence herbicidal action against ALOMY; type: in vivo, Alopecurus myosuroides; details: dosage 20 g/ha, visual assessment about 3 weeks after treatment vs untreated controls
# Procedure, shortened: as §2
# [23] = 80 g/ha, scored visually after 3 weeks vs untreated controls (100% = plants have died, 0% = like control plants)
structure (smiles),measurement,setting,value
CNC(=O)c1c(C(F)(F)F)ccc(C(=O)Nc2nnnn2C)c1C [Example 1-25],pest or weed control at 20 g/ha,"VIOTR [1]; Viola tricolor, 504 h, dosage 20 g/ha",80%
same,pest or weed control at 80 g/ha,"VIOTR [1]; Viola tricolor, 504 h, dosage 80 g/ha",100%
same,pest or weed control at 20 g/ha,"SETVI [2]; Setaria viridis, 504 h, dosage 20 g/ha",80%
same,pest or weed control at 80 g/ha,"SETVI [2]; Setaria viridis, 504 h, dosage 80 g/ha",100%
same,pest or weed control at 80 g/ha,POLCO,80%
same,pest or weed control at 20 g/ha,"HORMU; Hordeum murinum, 504 h",100%
same,pest or weed control at 20 g/ha,"ECHCG [3]; Echinochloa crus-galli, 504 h, dosage 20 g/ha",100%
same,pest or weed control at 20 g/ha,"PHBPU [4]; Ipomoea purpurea, 504 h, dosage 20 g/ha",80%
same,pest or weed control at 20 g/ha,"DIGSA [5]; Digitaria sanguinalis, 504 h, dosage 20 g/ha",90%
same,pest or weed control at 80 g/ha,"DIGSA [5]; Digitaria sanguinalis, 504 h, dosage 80 g/ha",100%
same,pest or weed control at 5 g/ha,"DIGSA [6]; Digitaria sanguinalis, 504 h, 5 g/ha",90%
same,pest or weed control at 20 g/ha,"DIGSA [6]; Digitaria sanguinalis, 504 h, 20 g/ha",100%
same,pest or weed control at 20 g/ha,"AMARE [7]; Amaranthus retroflexus, 504 h",100%
same,pest or weed control at 5 g/ha,"ABUTH [8]; Abutilon theophrasti, 504 h, dosage 5 g/ha",100%
same,pest or weed control at 20 g/ha,"ABUTH [8]; Abutilon theophrasti, 504 h, dosage 20 g/ha",100%
same,pest or weed control at 20 g/ha,"AMARE [9]; Amaranthus retroflexus, 504 h, 20 g/ha, scored visually after 3 weeks vs untreated controls, 100% = plants have died, 0% = like control plants",100%
same,pest or weed control at 80 g/ha,"AMARE [9]; Amaranthus retroflexus, 504 h, 80 g/ha, scored visually after 3 weeks vs untreated controls, 100% = plants have died, 0% = like control plants",100%
same,pest or weed control at 20 g/ha,MATIN [10],100%
same,pest or weed control at 80 g/ha,"AVEFA; Avena fatua, 504 h",90%
same,pest or weed control at 80 g/ha,ALOMY [11],90%
same,pest or weed control at 20 g/ha,VERPE [12]; dosage 20 g/ha,80%
same,pest or weed control at 80 g/ha,VERPE [12]; dosage 80 g/ha,100%
same,pest or weed control at 20 g/ha,"MATIN [13]; Tripleurospermum inodorum, 504 h, dosage 20 g/ha",90%
same,pest or weed control at 80 g/ha,"MATIN [13]; Tripleurospermum inodorum, 504 h, dosage 80 g/ha",100%
same,pest or weed control at 80 g/ha,"ABUTH [14]; Abutilon theophrasti, 504 h, 80 g/ha, scored visually after 3 weeks vs untreated controls (100% = plants have died, 0% = like control plants)",100%
same,pest or weed control at 80 g/ha,LOLRI,80%
same,pest or weed control at 20 g/ha,"STEME [15]; Stellaria media, 504 h, dosage 20 g/ha",80%
same,pest or weed control at 80 g/ha,"STEME [15]; Stellaria media, 504 h, dosage 80 g/ha",90%
same,pest or weed control at 20 g/ha,"VERPE [16]; Veronica persica, 504 h",80%
same,pest or weed control at 20 g/ha,"STEME [17]; Stellaria media, 504 h, 20 g/ha",100%
same,pest or weed control at 5 g/ha,"STEME [17]; Stellaria media, 504 h, dosage 5 g/ha",80%
same,pest or weed control at 20 g/ha,"SETVI [18]; Setaria viridis, 504 h",80%
same,pest or weed control at 80 g/ha,"PHBPU [19]; Ipomoea purpurea, 504 h",90%
same,pest or weed control at 80 g/ha,"ECHCG [20]; Echinochloa crus-galli, 504 h, 80 g/ha",100%
same,pest or weed control at 5 g/ha,"VIOTR [21]; Viola tricolor, 504 h, 5 g/ha",100%
same,pest or weed control at 20 g/ha,"VIOTR [21]; Viola tricolor, 504 h, 20 g/ha",100%
same,pest or weed control at 20 g/ha,"ALOMY [22]; Alopecurus myosuroides, 504 h",100%
CCNC(=O)c1c(C(F)(F)F)ccc(C(=O)Nc2nnco2)c1SC [Example 5-59],Pre-emergence action against VIOTR in %,VIOTR [1]; dosage 20 g/ha,100%
same,Pre-emergence action against VIOTR in %,VIOTR [1]; dosage 80 g/ha,100%
same,Pre-emergence action against SETVI in %,SETVI [2]; dosage 80 g/ha,100%
same,Post-emergence action against HORMU in %,HORMU,80%
same,Post-emergence action against ECHCG in %,ECHCG [3]; dosage 5 g/ha,80%
same,Post-emergence action against ECHCG in %,ECHCG [3]; dosage 20 g/ha,90%
same,Post-emergence action against PHBPU in %,PHBPU [4]; dosage 5 g/ha,80%
same,Post-emergence action against PHBPU in %,PHBPU [4]; dosage 20 g/ha,90%
same,Pre-emergence action against DIGSA in %,DIGSA [5]; dosage 20 g/ha,100%
same,Pre-emergence action against DIGSA in %,DIGSA [5]; dosage 80 g/ha,100%
same,Post-emergence action against DIGSA in %,DIGSA [6]; 5 g/ha,90%
same,Post-emergence action against DIGSA,DIGSA [6]; 20 g/ha,90%
same,Post-emergence action at 20 g/ha against AMARE in %,AMARE [7],90%
same,Post-emergence action against ABUTH in %,ABUTH [8]; dosage 5 g/ha,90%
same,Post-emergence action against ABUTH in %,ABUTH [8]; dosage 20 g/ha,90%
same,Pre-emergence action against AMARE in %,"AMARE [9]; 20 g/ha, scored visually after 3 weeks vs untreated controls, 100% = plants have died, 0% = like control plants",100%
same,Pre-emergence action against AMARE in %,AMARE [9]; [23],100%
same,Pre-emergence action against AVEFA in %,AVEFA,80%
same,Pre-emergence action against MATIN in %,MATIN [13]; dosage 20 g/ha,80%
same,Pre-emergence action against MATIN in %,MATIN [13]; dosage 80 g/ha,90%
same,Pre-emergence action against ABUTH (herbicidal activity),ABUTH [14]; [23],100%
same,Pre-emergence action against ABUTH (herbicidal activity in percent),"ABUTH [14]; dosage 20 g/ha, scored visually after 3 weeks vs untreated controls, 100% = plants have died, 0% = like control plants",100%
same,Pre-emergence action against STEME in %,STEME [15]; dosage 20 g/ha,90%
same,Pre-emergence action against STEME in %,STEME [15]; dosage 80 g/ha,100%
same,Post-emergence action against VERPE in %,VERPE [16],80%
same,Post-emergence action against STEME in %,STEME [17]; 20 g/ha,100%
same,Post-emergence action against STEME in %,STEME [17]; dosage 5 g/ha,90%
same,Post-emergence action against SETVI in %,SETVI [18],90%
same,Pre-emergence action against PHBPU in %,PHBPU [19],80%
same,Pre-emergence action against ECHCG in %,ECHCG [20]; 20 g/ha,80%
same,Pre-emergence action against ECHCG in %,ECHCG [20]; 80 g/ha,100%
same,Post-emergence action against VIOTR in %,VIOTR [21]; 20 g/ha,80%
same,Post-emergence action against ALOMY in %,ALOMY [22],80%
